Test results taken from ChEMBL document CHEMBL1201862, “PubChem BioAssay data set” (2004).
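Five compound concentrations were applied to cells in 96-well plates for 48 hours; endpoints were derived by simple linear interpolation of the resulting dose-response curve. GI50 marks 50% less growth.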 Calls of active or inactive are those of the source. No stated cut-off is given here; in the data, active = GI50 up to about 1.1 µM and inactive = higher.

Tests used:
Assay in all cases: inhibition of tumour cell growth, NCI panel, 48 h
SW-620 = system: SW-620
SF-268 = system: SF-268
OVCAR-8 = system: OVCAR-8
MOLT-4 = system: MOLT-4
OVCAR-4 = system: OVCAR-4
M14 = system: M14
UACC-257 = system: UACC-257
786-0 = system: 786-0
UO-31 = system: UO-31
HCT-15 = system: HCT-15
RXF 393 = system: RXF 393
HCT-116 = system: HCT-116
HOP-92 = system: HOP-92
HOP-62 = system: HOP-62
CCRF-CEM = system: CCRF-CEM
Malme-3M = system: Malme-3M
SF-539 = system: SF-539
MDA-MB-231 = system: MDA-MB-231
PC-3 = system: PC-3
MCF7 = system: MCF7

CCOc1ccc(C(CN2CCOCC2)C(C)=O)cc1OC (stereo not given)
GI50 (SW-620): 16.4 µM (inactive)
GI50 (SF-268): 19.7 µM (inactive)
GI50 (OVCAR-8): 20.1 µM (inactive)
GI50 (MOLT-4): 21.9 µM (inactive)
GI50 (OVCAR-4): 18.3 µM (inactive)
GI50 (M14): 17.5 µM (inactive)
GI50 (UACC-257): 22.1 µM (inactive)
GI50 (786-0): 3.53 µM (inactive)
GI50 (UO-31): 14.6 µM (inactive)
GI50 (HCT-15): 10 µM
GI50 (RXF 393): 21 µM (inactive)
GI50 (HCT-116): 20.4 µM (inactive)
GI50 (HOP-92): 18.9 µM (inactive)
GI50 (HOP-62): 21 µM (inactive)
GI50 (CCRF-CEM): 9.4 µM (inactive)
GI50 (Malme-3M): 18.5 µM (inactive)
GI50 (SF-539): 16 µM (inactive)

Cc1cccc(NC(=O)c2cc3cc(/N=N/c4ccccc4Cl)ccc3oc2=O)c1
GI50 (SW-620): 54.1 µM (inactive)
GI50 (SF-268): 23.3 µM (inactive)
GI50 (OVCAR-8): 27 µM (inactive)
GI50 (MOLT-4): 22.8 µM (inactive)
GI50 (OVCAR-4): 29.4 µM (inactive)
GI50 (M14): 26.8 µM (inactive)
GI50 (UACC-257): 40.4 µM (inactive)
GI50 (786-0): 26.9 µM (inactive)
GI50 (UO-31): 13.3 µM (inactive)
GI50 (HCT-15): 27.4 µM
GI50 (RXF 393): 33.1 µM (inactive)
GI50 (HCT-116): 23.7 µM (inactive)
GI50 (HOP-92): 33.3 µM (inactive)
GI50 (HOP-62): 46.2 µM (inactive)
GI50 (CCRF-CEM): 14 µM (inactive)
GI50 (Malme-3M): 45.4 µM (inactive)
GI50 (SF-539): 30.3 µM (inactive)

Cn1c(C(C#N)c2nc(Cl)ncc2Br)nc2ccccc21 (stereo not given)
GI50 (SW-620): > 100 µM (inactive)
GI50 (SF-268): > 100 µM (inactive)
GI50 (OVCAR-8): > 100 µM (inactive)
GI50 (MOLT-4): > 100 µM (inactive)
GI50 (OVCAR-4): > 100 µM (inactive)
GI50 (M14): > 100 µM (inactive)
GI50 (UACC-257): > 100 µM (inactive)
GI50 (786-0): > 100 µM (inactive)
GI50 (UO-31): > 100 µM (inactive)
GI50 (HCT-15): > 100 µM
GI50 (RXF 393): > 100 µM (inactive)
GI50 (HCT-116): > 100 µM (inactive)
GI50 (HOP-92): > 100 µM (inactive)
GI50 (HOP-62): > 100 µM (inactive)
GI50 (MDA-MB-231): > 100 µM (inactive)
GI50 (Malme-3M): > 100 µM (inactive)
GI50 (SF-539): 44.5 µM (inactive)

CC1=C(C(=O)OCCc2ccc([N+](=O)[O-])cc2)C(c2cccc([N+](=O)[O-])c2)C(C(=O)OC(C)C)=C(C)N1 (stereo not given)
GI50 (SW-620): 6.68 µM (inactive)
GI50 (PC-3): 2.26 µM (inactive)
GI50 (SF-268): 6.4 µM (inactive)
GI50 (OVCAR-8): 4.88 µM (inactive)
GI50 (MOLT-4): 2.63 µM (inactive)
GI50 (OVCAR-4): > 100 µM (inactive)
GI50 (M14): 3.7 µM (inactive)
GI50 (UACC-257): 5.89 µM (inactive)
GI50 (786-0): 6.49 µM (inactive)
GI50 (UO-31): 5.43 µM (inactive)
GI50 (MCF7): 3.72 µM (inactive)
GI50 (HCT-15): 5.47 µM
GI50 (RXF 393): 2.91 µM (inactive)
GI50 (HCT-116): 3.69 µM (inactive)
GI50 (HOP-62): 5.55 µM (inactive)
GI50 (CCRF-CEM): 3.57 µM (inactive)
GI50 (Malme-3M): 6.75 µM (inactive)
GI50 (SF-539): > 100 µM (inactive)

CN1CCCc2nc3ccccc3n2C1
GI50 (SW-620): > 100 µM (inactive)
GI50 (SF-268): > 100 µM (inactive)
GI50 (OVCAR-8): > 100 µM (inactive)
GI50 (MOLT-4): > 100 µM (inactive)
GI50 (OVCAR-4): > 100 µM (inactive)
GI50 (M14): > 100 µM (inactive)
GI50 (UACC-257): > 100 µM (inactive)
GI50 (786-0): > 100 µM (inactive)
GI50 (UO-31): > 100 µM (inactive)
GI50 (HCT-15): > 100 µM
GI50 (RXF 393): > 100 µM (inactive)
GI50 (HCT-116): > 100 µM (inactive)
GI50 (HOP-92): > 100 µM (inactive)
GI50 (HOP-62): > 100 µM (inactive)
GI50 (CCRF-CEM): 88.3 µM (inactive)
GI50 (Malme-3M): > 100 µM (inactive)
GI50 (SF-539): > 100 µM (inactive)

CC1=NC=C(O)c2ccccc2O1
GI50 (SW-620): > 100 µM (inactive)
GI50 (SF-268): > 100 µM (inactive)
GI50 (OVCAR-8): > 100 µM (inactive)
GI50 (MOLT-4): > 100 µM (inactive)
GI50 (OVCAR-4): > 100 µM (inactive)
GI50 (M14): > 100 µM (inactive)
GI50 (UACC-257): > 100 µM (inactive)
GI50 (786-0): > 100 µM (inactive)
GI50 (UO-31): 85.5 µM (inactive)
GI50 (HCT-15): > 100 µM
GI50 (RXF 393): > 100 µM (inactive)
GI50 (HCT-116): > 100 µM (inactive)
GI50 (HOP-92): > 100 µM (inactive)
GI50 (HOP-62): > 100 µM (inactive)
GI50 (CCRF-CEM): > 100 µM (inactive)
GI50 (Malme-3M): > 100 µM (inactive)
GI50 (SF-539): > 100 µM (inactive)

Nn1c(S)nnc1-c1ccccc1Nc1ccccc1-c1nnc(S)n1N
GI50 (SW-620): > 50 µM (inactive)
GI50 (PC-3): > 50 µM (inactive)
GI50 (SF-268): > 50 µM (inactive)
GI50 (OVCAR-8): > 50 µM (inactive)
GI50 (MOLT-4): > 50 µM (inactive)
GI50 (OVCAR-4): > 50 µM (inactive)
GI50 (M14): > 50 µM (inactive)
GI50 (UACC-257): > 50 µM (inactive)
GI50 (786-0): > 50 µM (inactive)
GI50 (UO-31): > 50 µM (inactive)
GI50 (MCF7): > 50 µM (inactive)
GI50 (HCT-15): > 50 µM
GI50 (RXF 393): > 50 µM (inactive)
GI50 (HCT-116): > 50 µM (inactive)
GI50 (HOP-92): > 50 µM (inactive)
GI50 (HOP-62): > 50 µM (inactive)
GI50 (CCRF-CEM): > 50 µM (inactive)
GI50 (Malme-3M): > 50 µM (inactive)
GI50 (SF-539): > 50 µM (inactive)

CC(=O)/N=C1\NC(=O)/C(=C/c2ccc(/C=C3/C(=O)N/C(=N\C(C)=O)N3C)cc2)N1C
GI50 (SW-620): > 100 µM (inactive)
GI50 (SF-268): > 100 µM (inactive)
GI50 (OVCAR-8): > 100 µM (inactive)
GI50 (MOLT-4): > 100 µM (inactive)
GI50 (OVCAR-4): > 100 µM (inactive)
GI50 (M14): > 100 µM (inactive)
GI50 (UACC-257): > 100 µM (inactive)
GI50 (786-0): > 100 µM (inactive)
GI50 (UO-31): > 100 µM (inactive)
GI50 (MCF7): > 100 µM (inactive)
GI50 (HCT-15): > 100 µM
GI50 (RXF 393): > 100 µM (inactive)
GI50 (HCT-116): > 100 µM (inactive)
GI50 (HOP-92): > 100 µM (inactive)
GI50 (HOP-62): > 100 µM (inactive)
GI50 (MDA-MB-231): > 100 µM (inactive)
GI50 (SF-539): > 100 µM (inactive)

CCc1n[nH]c(=O)n1-c1ccc2ccccc2c1
GI50 (SW-620): > 100 µM (inactive)
GI50 (SF-268): > 100 µM (inactive)
GI50 (OVCAR-8): > 100 µM (inactive)
GI50 (MOLT-4): > 100 µM (inactive)
GI50 (OVCAR-4): > 100 µM (inactive)
GI50 (M14): > 100 µM (inactive)
GI50 (UACC-257): > 100 µM (inactive)
GI50 (786-0): > 100 µM (inactive)
GI50 (UO-31): > 100 µM (inactive)
GI50 (MCF7): > 100 µM (inactive)
GI50 (HCT-15): > 100 µM
GI50 (RXF 393): > 100 µM (inactive)
GI50 (HCT-116): > 100 µM (inactive)
GI50 (HOP-92): > 100 µM (inactive)
GI50 (HOP-62): > 100 µM (inactive)
GI50 (CCRF-CEM): > 100 µM (inactive)
GI50 (MDA-MB-231): > 100 µM (inactive)
GI50 (Malme-3M): > 100 µM (inactive)
GI50 (SF-539): > 100 µM (inactive)

COc1cc(C(c2ccccc2)N2C(=O)CC[C@H]2C(=O)O)cc(OC)c1OC (stereo not given in full)
GI50 (SW-620): > 100 µM (inactive)
GI50 (PC-3): > 100 µM (inactive)
GI50 (SF-268): > 100 µM (inactive)
GI50 (OVCAR-8): > 100 µM (inactive)
GI50 (MOLT-4): > 100 µM (inactive)
GI50 (OVCAR-4): > 100 µM (inactive)
GI50 (M14): > 100 µM (inactive)
GI50 (UACC-257): > 100 µM (inactive)
GI50 (786-0): > 100 µM (inactive)
GI50 (UO-31): > 100 µM (inactive)
GI50 (MCF7): > 100 µM (inactive)
GI50 (HCT-15): > 100 µM
GI50 (HCT-116): > 100 µM (inactive)
GI50 (HOP-92): > 100 µM (inactive)
GI50 (HOP-62): > 100 µM (inactive)
GI50 (CCRF-CEM): > 100 µM (inactive)
GI50 (Malme-3M): > 100 µM (inactive)
GI50 (SF-539): > 100 µM (inactive)

CCC(=O)C(C)C(=O)C(=O)C(=O)OC (stereo not given)
GI50 (SW-620): > 26.2 µM (inactive)
GI50 (SF-268): > 100 µM (inactive)
GI50 (OVCAR-8): > 100 µM (inactive)
GI50 (MOLT-4): > 51.4 µM (inactive)
GI50 (OVCAR-4): > 100 µM (inactive)
GI50 (M14): > 100 µM (inactive)
GI50 (UACC-257): > 94.6 µM (inactive)
GI50 (786-0): > 100 µM (inactive)
GI50 (UO-31): > 100 µM (inactive)
GI50 (HCT-15): > 55.8 µM
GI50 (RXF 393): > 63.5 µM (inactive)
GI50 (HCT-116): > 62.8 µM (inactive)
GI50 (HOP-92): > 100 µM (inactive)
GI50 (HOP-62): > 100 µM (inactive)
GI50 (CCRF-CEM): > 46.9 µM (inactive)
GI50 (Malme-3M): > 100 µM (inactive)
GI50 (SF-539): > 100 µM (inactive)

CCCOc1ccc(/C(Cl)=C(\C=O)c2ccc(OC)c(OC)c2)cc1OCCC
GI50 (SW-620): 5.13 µM (inactive)
GI50 (SF-268): 3.73 µM (inactive)
GI50 (OVCAR-8): 11.9 µM (inactive)
GI50 (MOLT-4): 2.31 µM (inactive)
GI50 (OVCAR-4): 7.03 µM (inactive)
GI50 (M14): 12.7 µM (inactive)
GI50 (UACC-257): 11 µM (inactive)
GI50 (786-0): 20.8 µM (inactive)
GI50 (UO-31): 17.6 µM (inactive)
GI50 (HCT-15): 5.47 µM
GI50 (RXF 393): 3.28 µM (inactive)
GI50 (HCT-116): 2.64 µM (inactive)
GI50 (HOP-92): 18 µM (inactive)
GI50 (HOP-62): 19.8 µM (inactive)
GI50 (CCRF-CEM): 3.59 µM (inactive)
GI50 (Malme-3M): 0.804 µM (active)
GI50 (SF-539): 14.1 µM (inactive)
